Reference: paper PMC7898822, “RNA‐PROTACs: Degraders of RNA‐Binding Proteins” (Angewandte Chemie (International Ed. in English), 2020)

System: Lin28A
Test: Pull-down RNA ELISA, gymnosis, anti-Lin28A
Type: cell-based, human
Conditions: 3'-biotin conjugates, K562 cells, 2 µM, 24 h; streptavidin plate; vs mock or FUS antibody
From the text: Humans express two paralogs of the protein, LIN28 (Lin28A) and LIN28B (Lin28B), that play key roles in development, metabolism, and pluripotency. ^[34] Lin28 proteins are abundantly expressed during embryonic development, as well as in several tumors and tumor‐derived cell lines. ^[35] […] In order to confirm that RNA‐PROTACs bind to endogenous Lin28 in cells, we performed a pull‐down RNA ELISA assay that we have previously described. ^[36] Thus, we conjugated a biotin group to the 3′ ends of ORN3P1 and ORN7P1 and added these reagents separately on to myelogenous leukemia K562 cells. We incubated lysates from treated cells on streptavidin‐coated plates so as to capture the RNA‐PROTACs present in the cell lysates. We then assayed for the presence of Lin28A in the plates using an anti‐Lin28A antibody and a negative control anti‐FUS antibody. […]
The protein extracts (12-17 µg) were run on a 4-20% SDS-PAGE and transferred on a nitrocellulose blotting membrane 0.22 µm (GE Healthcare) using the Trans-Blot transfer device (Biorad). […] The proteins were detected using the anti-lin28a antibody (Cell Signaling technology, D9F5), anti-lin28b antibody (Cell Signaling technology, 4196S), anti-rbfox1 (NovusBio, NBP2-13169SS), at 1:1000 and anti-hrnp c antibody […]
on a ChemiDoc MP imager (Biorad). The intensity of the signal was quantified using the ImageJ-Fiji software. […]

## CC[C@H](C)[C@H](NC(=O)[C@H](Cc1ccc(O)cc1)NC(=O)[C@@H]1C[C@@H](O)CN1C(=O)[C@H](C)NC(=O)[C@H](CC(C)C)NC(=O)CCCCCNC(=O)[C@@H](N)CSC1CC(=O)N(CCOP(=O)(S)OC[C@H]2O[C@@H](n3cnc4c(N)ncnc43)[C@H](OCCOC)[C@@H]2OP(=O)(S)OC[C@H]2O[C@@H](n3cnc4c(=O)[nH]c(N)nc43)[C@H](OCCOC)[C@@H]2OP(=O)(S)OC[C@H]2O[C@@H](n3cnc4c(=O)[nH]c(N)nc43)[C@H](OCCOC)[C@@H]2OP(=O)(S)OC[C@H]2O[C@@H](n3cnc4c(N)ncnc43)[C@H](OCCOC)[C@@H]2OP(=O)(S)OC[C@H]2O[C@@H](n3cnc4c(=O)[nH]c(N)nc43)[C@H](OCCOC)[C@@H]2OP(=O)(S)OC[C@H]2O[C@@H](n3cnc4c(N)ncnc43)[C@H](OCCOC)[C@@H]2OP(=O)(S)OC[C@H]2O[C@@H](n3cc(C)c(=O)[nH]c3=O)[C@H](OCCOC)[C@@H]2O)C1=O)C(=O)O (stereo partly shown) [ORN3P1]
  Lin28A pull-down signal: strong signal for Lin28A protein
